One test has as its target T1, NPY Y1 receptor (Homo sapiens, UniProt P25929).
T1 construct: host or cells: SK-N-MC cells (whole-cell suspension)
T1 sequence (P25929 1-384): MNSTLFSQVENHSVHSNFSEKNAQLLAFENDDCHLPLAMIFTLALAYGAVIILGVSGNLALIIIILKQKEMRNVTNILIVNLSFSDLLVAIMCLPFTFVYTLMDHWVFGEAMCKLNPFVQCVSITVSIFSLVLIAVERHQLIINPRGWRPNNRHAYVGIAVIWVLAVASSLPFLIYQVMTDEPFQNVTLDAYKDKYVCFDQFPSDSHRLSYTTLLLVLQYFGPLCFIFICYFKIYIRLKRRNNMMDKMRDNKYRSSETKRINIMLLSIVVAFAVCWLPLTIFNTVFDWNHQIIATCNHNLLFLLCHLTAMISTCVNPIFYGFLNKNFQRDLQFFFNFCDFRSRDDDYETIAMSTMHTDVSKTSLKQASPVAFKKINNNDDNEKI
As to the kind of experiment: cAMP measurement test in SK-N-MC cells (shift of NPY dose-effect curves, forskoline-stimulated). Conditions: Schild analysis vs NPY, read-out: pA2 Y1 (converted). The format is cell-based. The procedure: The SK-N-MC cells are cultured in 96-well plates. After aspirating the culture medium, the cells are washed with a phosphate buffer pH 7.4 (Invitrogen ref. 14190-094), then lifted with a Versene solution (Invitrogen, ref 15040-033). The cells are centrifuged at 500×g for 10 minutes at 4° C. They are resuspended in a stimulation buffer containing isobutyl-methyl-xanthine in sufficient concentration to inhibit the phosphodiesterases (Flashplate kit, Perkin Elmer). The tested compounds are added 10 minutes before depositing the NPY (Bachem, H3322) in variable concentration, then the 300 nM forskoline (Sigma, F6886). The cells are in cubated 1 hour at ambient temperature to allow cAMP production whose levels are measured using the Flashplate method after 2 hours incubation with the cAMP tracer [^125I]. The results are expressed in pA2 form observing the displacement of NPY dose-effect curves in the absence and presence of increasing concentrations of test compound [Schild, 1949, pAx and competitive drug antagonism, Br. J. Pharmacol., 4, 277-280].

The target in another test is T2, NPY Y2 receptor (Homo sapiens, UniProt P49146).
T2 construct: host or cells: KAN.TS cells (whole-cell suspension)
T2 sequence (P49146 1-381): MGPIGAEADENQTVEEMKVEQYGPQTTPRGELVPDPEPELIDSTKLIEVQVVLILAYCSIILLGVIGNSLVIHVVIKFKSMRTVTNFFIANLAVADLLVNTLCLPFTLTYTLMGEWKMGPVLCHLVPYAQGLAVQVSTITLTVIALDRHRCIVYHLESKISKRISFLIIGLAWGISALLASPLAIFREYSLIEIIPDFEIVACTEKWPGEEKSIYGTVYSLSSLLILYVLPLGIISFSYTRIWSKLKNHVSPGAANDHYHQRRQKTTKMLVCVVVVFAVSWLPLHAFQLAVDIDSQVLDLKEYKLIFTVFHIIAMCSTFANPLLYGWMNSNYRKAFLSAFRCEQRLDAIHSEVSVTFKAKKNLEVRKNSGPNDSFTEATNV
As to the kind of experiment: Binding test to the NPY Y2 receptor ([125I]-PYY, KAN.TS cell suspension). The procedure: The KAN.TS cells (Amersham RPNQ0081) are cultured at 37° C. in DMEM Glutamax medium (Life Technology ref. 61965026) containing 15% foetal calf serum (Invitrogen), 1% L-Glutamine (Invitrogen ref.250300-032), 50 IU/ml penicillin and 50 μg/ml of streptomycin (Invitrogen ref. 15070022) in a humid atmosphere containing 5% CO2.
After aspirating the culture medium, the cells are washed with phosphate buffer pH 7.4 (Sigma ref. D5652), then lifted with a solution of PBS^−, 0.5 mM EDTA (ethylenediaminetetraacetic acid) (Sigma ref ED 2SS). […] The cells are counted and centrifuged at 1500 rpm for 10 min then resuspended in the freeze buffer and aliquoted into ten million cells per millilitre of freeze buffer, and stored at −70° C.
The cell suspension with 25000 cells/ml is incubated 1 h at 37° C. in an incubation buffer pH 7.4 containing 50 mM HEPES/NaOH, 2.5 mM calcium chloride, 1 mM magnesium chloride, 0.025% sodium azide, 1 mg/ml bovine albumin and 15 pM of [^125I]-PYY (Perkin Elmer, NEX341). […] The radioactivity deposited on the filter is measured by liquid scintillation count (TopCount, Packard). Non-specific binding is determined in the presence of 1 μM NPY (Bachem, H3322). […]

The values below come from patent publication US20090233910A1, “Npy antagonists, preparation and uses” (CEREP, priority 2005, published 2009).

Regarding `CCCCN1CCC(Oc2ccc(C(=O)Nc3ccc(Oc4ccc(NC(=O)NC(CC)CC)cc4OC)cc3)cc2)CC1` [Example 103, 4-(1-Butyl-piperidin-4-yloxy)-N-(4-{4-[3-(1-ethyl-propyl)-ureido]-2-methoxy-phenoxy}-phenyl)-benzamide], on NPY Y1 receptor, the Kb is 6.31 nM. Moreover, at NPY Y2 receptor (KAN.TS cells, [125I]-PYY), the IC50 is above 10000 nM. The inhibition at 10 µM at NPY Y2 receptor (inhibition of specific binding at 10 μM of compound, read-out: % Inh at 10 μM Y2) turned out to be 10%.
